In patent US20090053138A1, “Stabilized Aptamers to Platelet Derived Growth Factor and their Use as Oncology Therapeutics” (priority 2002, published 2009):
{PEG40k} = 40 kDa polyethylene glycol; [invdT] = inverted (3'-3') thymidine; [HEG] = hexaethylene glycol spacer

Tests used:
PDGF BB [1] = target: T1, PDGF BB (Homo sapiens, UniProt P01127); test: 3T3 cell proliferation assay (PDGF-BB induced); type: cell-based, rat; design: purchased PeproTech, Rocky Hill, N.J
Experimental: 3T3 cells, a rat fibroblast cell line (ATCC, Manassas, Va.), were plated 3,000 cells/well in a 96 well plate one day prior to the start of the assay in 100 ul DMEM/10% FCS. The following day, cells were washed once with straight DMEM and then 75 ul DMEM/0.8% FCS was added to each well. […] Cells were incubated for 3 days. Following incubation 10 ul MTT (Promega, Madison, Wis.) was added to each well and incubated for an additional 1.5 hours. Media was then removed, 200 ul Isopropanol (2-propanol) was added to each well, cells were re-suspended thoroughly and absorbance at 570 nm was read on a 96 well plate reader.
(§1) 3T3 cells, which are derived from a rat fibroblast cell line (ATCC, Manassas, Va.), were used in a proliferation assay to test potency of modified ARC513 aptamers. 3T3 fibroblast cells have PDGF receptors on their cell-surface and respond to mitogen, e.g., PDGF stimulation by proliferation. The assay was performed as follows: 3T3 cells were plated 3,000 cells/well in a 96 well plate one day prior to the start of the assay in 100 ul DMEM/10% FCS. The following day, cells were washed once with straight DMEM and then 75 ul DMEM/0.8% FCS was added to each well. Then 25 ul of PDGF-BB (PeproTech, Rocky Hill, N.J.) at a 50 ng/ml final concentration was added to each well +/− aptamer condition to be tested. […] The functional PDGF aptamer dilutions usually consisted of 6 points in 2-fold serial dilutions.
(§2) Cells were incubated for 3 days. Following incubation 10 ul MTT (Promega, Madison, Wis.) was added to each well and incubated for an additional 1.5 hours. Media was removed, 200 μl Isopropanol (2-propanol) was added to each well, cells were re-suspended thoroughly and absorbance at 570 nm was read on a 96 well plate reader. The present example depicts the potency comparison of PDGF aptamer ARC: 513 to that of ARC 513 variants.
The 3T3 proliferation assay previously described was used to test potency of all PEG conjugated ARC513 variants described immediately above. The assay was performed as follows: 3T3 cells were plated 3,000 cells/well in a 96 well plate one day prior to the start of the assay in 100 ul DMEM/10% FCS. The following day, cells were washed once with straight DMEM and then 75 ul DMEM/0.8% FCS was added to each well. Then 25 ul of PDGF-BB (PeproTech, Rocky Hill, N.J.) at a 50 ng/ml final concentration was added to each well +/− aptamer condition to be tested. […] The functional PDGF aptamer dilutions usually consisted of 6 points in 2-fold serial dilutions.
as §2, with “ARC513” for “ARC: 513”, “PEGylated ARC513 aptamers.” for “ARC 513 variants.”
as §1, with “3T3” for “3T3 cells, which are derived from a rat fibroblast cell line (ATCC, Manassas, Va.), were used in a proliferation assay to test potency of modified ARC513 aptamers. 3T3”, “100 μl” for “100 ul”
as §2, with “[…]” for “μl”, “reader.” for “reader. The present example depicts the potency comparison of PDGF aptamer ARC: 513 to that of ARC 513 variants.”

PDGF BB [2] = target: T1, PDGF BB; test: Cell migration assay, RPE cells; type: cell-based; design: purchased PeproTech, Rocky Hill, N.J
Experimental: PDGF is a strong mitogen as well as a chemoattractant. […] In the cell migration assay 80,000 cells 3T3 rat fibroblasts (ATCC, Manassas, Va.) or RPE (retinal pigmented epithelial) cells (ATCC, Manassas, Va.) were plated per well into a 24 well plate with 8 micron filters (BD Biosciences, Discovery Labware, Bedford, Mass.). 0.5 ml DMEM/0.2% FCS was added to the top chamber and 0.8 ml DMEM/0.2% FCS was added to the bottom chamber. The system was equilibrated by incubating for 4 hours at 37 degrees celsius. Human PDGF-BB (PeproTech, Rocky Hill, N.J.) (for RPE cells) or rat PDGF-BB (PeproTech) (for 3T3 cells) was added to the bottom chamber (0 ng/ml-100 ng/ml final concentration). […] Cells were scraped off on the top of filter with a Q-tip. The cells that migrated to the bottom of the filter were fixed with a mixture of cold 50% Methanol/50% Acetone for 3 minutes.
Following incubation filters were washed with 1×PBS and stained with Giemsa Stain (Matheson Coleman and Bell) for 1-2 hours and migration was visualized by taking pictures on a Zeiss Axiovert 200M microscope.
The 96 well assay starts by bringing plates and reagents to room temperature. 150 ul of DMEM/0.2% FBS was added with or without chemoattractant to the wells of the feeder tray.
Following incubation, the migration chamber plate was removed and the non-migratory cells were discarded. The number of migratory cells was quantitated according to manufacturer's recommended instructions. In brief, media from the top side was removed by flipping out the remaining cell suspension, and was placed onto a new feeder tray that contains 150 ul of pre-warmed Cell Detachment Solution. This mixture was incubated for 30 minutes at 37 degrees celsius. CyQuant GR Dye 1:75 was diluted with 4× Lysis Buffer and 50 ul of the Lysis Buffer/Dye Solution was added to each well containing 150 ul of the solution containing migratory cells.

[3] = 100 nM aptamer, 5 nM PDGF BB, 24 well format

T1 sequence (P01127 82-190 limits assumed): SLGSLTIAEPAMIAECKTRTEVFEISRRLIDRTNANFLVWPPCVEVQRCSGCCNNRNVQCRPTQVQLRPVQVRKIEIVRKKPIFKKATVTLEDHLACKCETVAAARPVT

Substance: 5′-(SEQ ID NO.4)-HEG-(SEQ ID NO:5)-HEG-(SEQ ID NO:6)-3 (chain 1 CAGCGUACG; chain 2 CGTACCGATUCA; chain 3 TGAAGCUG; HEG spacers joining pieces; synthetic aptamer; modified_base (4)..(4) cytidine is 2′-fluoro; modified_base (5)..(5) gm; modified_base (6)..(6) uridine is 2′-fluoro; modified_base (8)..(8) cytidine is 2′-fluoro; modified_base (9)..(9) gm; modified_base (7)..(7) gm; modified_base (10)..(10) uridine is 2′-fluoro; modified_base (11)..(11) cytidine is 2′-fluoro; modified_base (12)..(12) adenosine is 2′-O-Methyl; modified_base (6)..(6) cytidine is 2′-fluoro; modified_base (7)..(7) uridine is 2′-fluoro; modified_base (8)..(8) gm) [ARC128, reference compound]
- effect on 3T3 cell proliferation (PDGF BB [1]; scrambled control): never displays an effect
- migration of RPE cells (PDGF BB [2]; [3]): no activity
- migration of RPE cells (PDGF BB [2]; 96 well format): did not affect migration

Substance: 5′-[40 K PEG]-(SEQ ID NO:1)-HEG-(SEQ ID NO:2)-HEG-(SEQ ID NO:3)-3′-dT-3′ (chain 1 CAGGCUACG; chain 2 CGTAGAGCAUCA; chain 3 TGATCCUG; piece 1: 2'-fluoro at 6, 8, 2'-O-methyl at 9, 5' {PEG40k}, 3' [HEG], other sugars and backbone not given here; piece 2: 2'-O-methyl at 5, 7, 12, 2'-fluoro at 10, 11, 3' [HEG], other sugars and backbone not given here; piece 3: 2'-fluoro at 5, 6, 7, 2'-O-methyl at 8, 3' [invdT], other sugars and backbone not given here) [ARC127]
- concentration reducing the PDGF driven increase in proliferation to background levels (PDGF BB [1]): 30 nM
- potency compared to PDGF neutralizing polyclonal antibody (PDGF BB [1]): better potency
- potency of legacy aptamers vs newly synthesized (PDGF BB [1]; after lyophilization and storage at −20 degrees celsius for 2 years): just as potent
- effect of 5′ conjugation to 30 kDa and 40 kDa PEG groups on in vitro activity (PDGF BB [1]; relative to ARC126): does not significantly reduce the in vitro activity
- migration of RPE cells (PDGF BB [2]; [3]): inhibits the effects of 5 nM PDGF-BB
- migration of RPE cells (PDGF BB [2]; 96 well format): reduced migration levels to background
